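Protocol summary: plate cells (96-well), add compound at 5 concentrations, incubate 48 h, interpolate endpoints linearly. TGI: total growth inhibition.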
system: HL-60(TB) leukemia; assay: DTP human tumour cell line panel, 48 h

Compared with `CC1(c2cccs2)CC(c2cccs2)=C(C#N)C(=C(C#N)C#N)N1` (stereo not given), `CCOC(=O)c1c(NC(=O)c2cccs2)sc2c1CCCC2` is higher in TGI: 33.1 µM for the first, greater than 100 µM for the second.

Going from `O=C(C=P(c1ccccc1)(c1ccccc1)c1ccccc1)c1ccc(-c2cccc([N+](=O)[O-])c2)s1` to `Nc1ccc(-c2nc3cc(F)ccc3s2)cc1Cl`, the TGI rises from 59.6 µM to greater than 100 µM.

`OC1(C(F)(F)F)OCCN=C1C(F)(F)F` (stereo not given) and `CCCC(=O)n1[nH]c(=O)n(-c2ccc(Cl)cc2)c1=O` cannot be ordered by TGI: greater than 100 µM for the first, greater than 100 µM for the second.

system: SF-268 CNS; assay: DTP human tumour cell line panel, 48 h

Compared with `CC1(c2cccs2)CC(c2cccs2)=C(C#N)C(=C(C#N)C#N)N1` (stereo not given), `CCOC(=O)c1c(NC(=O)c2cccs2)sc2c1CCCC2` is 2.1-fold higher in TGI: 35.9 µM for the first, 73.6 µM for the second.

`O=C(C=P(c1ccccc1)(c1ccccc1)c1ccccc1)c1ccc(-c2cccc([N+](=O)[O-])c2)s1` and `Nc1ccc(-c2nc3cc(F)ccc3s2)cc1Cl` cannot be ordered by TGI: greater than 100 µM for the first, greater than 100 µM for the second.

`OC1(C(F)(F)F)OCCN=C1C(F)(F)F` (stereo not given) and `CCCC(=O)n1[nH]c(=O)n(-c2ccc(Cl)cc2)c1=O` cannot be ordered by TGI: greater than 100 µM for the first, greater than 100 µM for the second.

system: HOP-62 NSCLC; assay: DTP human tumour cell line panel, 48 h

`CC1(c2cccs2)CC(c2cccs2)=C(C#N)C(=C(C#N)C#N)N1` (stereo not given) and `CCOC(=O)c1c(NC(=O)c2cccs2)sc2c1CCCC2` are within 1.5-fold of each other in TGI: 39.7 µM for the first, 55.3 µM for the second.

First: O=C(C=P(c1ccccc1)(c1ccccc1)c1ccccc1)c1ccc(-c2cccc([N+](=O)[O-])c2)s1
Second: Nc1ccc(-c2nc3cc(F)ccc3s2)cc1Cl
The TGI of the first is higher: greater than 100 µM for the first, 46.8 µM for the second.

`OC1(C(F)(F)F)OCCN=C1C(F)(F)F` (stereo not given) and `CCCC(=O)n1[nH]c(=O)n(-c2ccc(Cl)cc2)c1=O` cannot be ordered by TGI: greater than 100 µM for the first, greater than 100 µM for the second.

system: M14 melanoma; assay: DTP human tumour cell line panel, 48 h

Going from `CC1(c2cccs2)CC(c2cccs2)=C(C#N)C(=C(C#N)C#N)N1` (stereo not given) to `CCOC(=O)c1c(NC(=O)c2cccs2)sc2c1CCCC2`, the TGI rises from 40.5 µM to greater than 100 µM.

`O=C(C=P(c1ccccc1)(c1ccccc1)c1ccccc1)c1ccc(-c2cccc([N+](=O)[O-])c2)s1` and `Nc1ccc(-c2nc3cc(F)ccc3s2)cc1Cl` cannot be ordered by TGI: greater than 100 µM for the first, greater than 100 µM for the second.

`OC1(C(F)(F)F)OCCN=C1C(F)(F)F` (stereo not given) and `CCCC(=O)n1[nH]c(=O)n(-c2ccc(Cl)cc2)c1=O` cannot be ordered by TGI: greater than 100 µM for the first, greater than 100 µM for the second.

system: RXF 393 renal; assay: DTP human tumour cell line panel, 48 h

`CC1(c2cccs2)CC(c2cccs2)=C(C#N)C(=C(C#N)C#N)N1` (stereo not given) and `CCOC(=O)c1c(NC(=O)c2cccs2)sc2c1CCCC2` are within 1.5-fold of each other in TGI: 38.7 µM for the first, 30.8 µM for the second.

`O=C(C=P(c1ccccc1)(c1ccccc1)c1ccccc1)c1ccc(-c2cccc([N+](=O)[O-])c2)s1` and `Nc1ccc(-c2nc3cc(F)ccc3s2)cc1Cl` cannot be ordered by TGI: greater than 100 µM for the first, greater than 100 µM for the second.

`OC1(C(F)(F)F)OCCN=C1C(F)(F)F` (stereo not given) and `CCCC(=O)n1[nH]c(=O)n(-c2ccc(Cl)cc2)c1=O` cannot be ordered by TGI: greater than 100 µM for the first, greater than 100 µM for the second.

system: SN12C renal; assay: DTP human tumour cell line panel, 48 h

Compared with `CC1(c2cccs2)CC(c2cccs2)=C(C#N)C(=C(C#N)C#N)N1` (stereo not given), `CCOC(=O)c1c(NC(=O)c2cccs2)sc2c1CCCC2` is higher in TGI: 35.6 µM for the first, greater than 100 µM for the second.

`O=C(C=P(c1ccccc1)(c1ccccc1)c1ccccc1)c1ccc(-c2cccc([N+](=O)[O-])c2)s1` and `Nc1ccc(-c2nc3cc(F)ccc3s2)cc1Cl` cannot be ordered by TGI: greater than 100 µM for the first, greater than 71.8 µM for the second.

`OC1(C(F)(F)F)OCCN=C1C(F)(F)F` (stereo not given) and `CCCC(=O)n1[nH]c(=O)n(-c2ccc(Cl)cc2)c1=O` cannot be ordered by TGI: greater than 100 µM for the first, greater than 100 µM for the second.

system: TK-10 renal; assay: DTP human tumour cell line panel, 48 h

Going from `CC1(c2cccs2)CC(c2cccs2)=C(C#N)C(=C(C#N)C#N)N1` (stereo not given) to `CCOC(=O)c1c(NC(=O)c2cccs2)sc2c1CCCC2`, the TGI rises from 36.5 µM to greater than 86.1 µM.

Compared with `O=C(C=P(c1ccccc1)(c1ccccc1)c1ccccc1)c1ccc(-c2cccc([N+](=O)[O-])c2)s1`, `Nc1ccc(-c2nc3cc(F)ccc3s2)cc1Cl` is lower in TGI: greater than 100 µM for the first, 0.176 µM for the second.

`OC1(C(F)(F)F)OCCN=C1C(F)(F)F` (stereo not given) and `CCCC(=O)n1[nH]c(=O)n(-c2ccc(Cl)cc2)c1=O` cannot be ordered by TGI: greater than 100 µM for the first, greater than 100 µM for the second.

system: COLO 205 colon; assay: DTP human tumour cell line panel, 48 h

First: CC1(c2cccs2)CC(c2cccs2)=C(C#N)C(=C(C#N)C#N)N1 (stereo not given)
Second: CCOC(=O)c1c(NC(=O)c2cccs2)sc2c1CCCC2
The TGI of the first is lower: 39.9 µM for the first, greater than 100 µM for the second.

Compared with `O=C(C=P(c1ccccc1)(c1ccccc1)c1ccccc1)c1ccc(-c2cccc([N+](=O)[O-])c2)s1`, `Nc1ccc(-c2nc3cc(F)ccc3s2)cc1Cl` is higher in TGI: 27.9 µM for the first, greater than 100 µM for the second.

`OC1(C(F)(F)F)OCCN=C1C(F)(F)F` (stereo not given) and `CCCC(=O)n1[nH]c(=O)n(-c2ccc(Cl)cc2)c1=O` cannot be ordered by TGI: greater than 100 µM for the first, greater than 100 µM for the second.

system: BT-549 breast; assay: DTP human tumour cell line panel, 48 h

Compared with `CC1(c2cccs2)CC(c2cccs2)=C(C#N)C(=C(C#N)C#N)N1` (stereo not given), `CCOC(=O)c1c(NC(=O)c2cccs2)sc2c1CCCC2` is higher in TGI: 57.5 µM for the first, greater than 100 µM for the second.

`O=C(C=P(c1ccccc1)(c1ccccc1)c1ccccc1)c1ccc(-c2cccc([N+](=O)[O-])c2)s1` and `Nc1ccc(-c2nc3cc(F)ccc3s2)cc1Cl` cannot be ordered by TGI: greater than 100 µM for the first, greater than 63.2 µM for the second.

`OC1(C(F)(F)F)OCCN=C1C(F)(F)F` (stereo not given) and `CCCC(=O)n1[nH]c(=O)n(-c2ccc(Cl)cc2)c1=O` cannot be ordered by TGI: greater than 100 µM for the first, greater than 100 µM for the second.

system: MCF7 breast; assay: DTP human tumour cell line panel, 48 h

Going from `CC1(c2cccs2)CC(c2cccs2)=C(C#N)C(=C(C#N)C#N)N1` (stereo not given) to `CCOC(=O)c1c(NC(=O)c2cccs2)sc2c1CCCC2`, the TGI rises from 39.1 µM to greater than 100 µM.

Going from `O=C(C=P(c1ccccc1)(c1ccccc1)c1ccccc1)c1ccc(-c2cccc([N+](=O)[O-])c2)s1` to `Nc1ccc(-c2nc3cc(F)ccc3s2)cc1Cl`, the TGI falls from greater than 100 µM to 1.35 µM.

`OC1(C(F)(F)F)OCCN=C1C(F)(F)F` (stereo not given) and `CCCC(=O)n1[nH]c(=O)n(-c2ccc(Cl)cc2)c1=O` cannot be ordered by TGI: greater than 100 µM for the first, greater than 100 µM for the second.

Source: PubChem BioAssay (NCI)
